{
  "source": "patent US5762953A",
  "about": "“Transdermal propentofylline compositions for the treatment of Alzheimers disease” (Theratech, Inc., priority 1996, dated 1998)",
  "key": {"[1]": {"experiment": "In vitro skin flux study of reservoir formulations, heat separated human epidermal membrane, modified Franz diffusion cells", "assay_type": "in vitro ADME", "description": "Two reservoir type formulations (I and II) were prepared for the determination of initial propentofylline skin flux rates.\nApproximately 4.0 ml of a base solution was prepared in a 7 ml glass vial. This solution consisted of 50% v/v of ethanol, USP; 15% v/v purified water (18 Mohm-cm); 30% v/v glycerin, USP; 1% v/v of glycerol monooleate (GMO, \"Myverol® 18-99); 1% v/v methyl laurate (ML). To one solution was added sufficient propentofylline provide a concentration of about 72 mg/ml of solution (Formulation I) and to the other was added sufficient propentofylline to provide a concentration of about 131 mg/ml of solution (Formulation II). To each solution was added about 3% v/v of hydroxypropyl methylcellulose (Methocel® E10M) as a thickening agent. […]\nDermatomed (≈[…]) full thickness human cadaver skin was obtained from skin banks. […] Information on age, race, sex and anatomical site of the donor skin was recorded when available.\n[…] skin flux studies were conducted using a heat separated human epidermal membrane and modified Franz diffusion cells. […] At predetermined time points, the entire contents of the receiver compartment were collected for drug quantitation,and the receiver compartment refilled with fresh receptor medium, taking care to eliminate any air bubbles at the skin/solution interface. […]"}, "[2]": {"settings": "oral treatment; cited from earlier work"}, "[3]": {"settings": "cited from earlier work"}, "[4]": {"settings": "cited from earlier work", "remark": "listed apart in the source"}, "[5]": {"system": "nucleoside transport", "settings": "cerebral ischemia; cited from earlier work"}},
  "data": [
    {"smiles": "CCCn1cnc2c1c(=O)n(CCCCC(C)=O)c(=O)n2C", "note": "[propentofylline, 1-(5'-oxohexyl)-3-methyl-7-propylxanthine]", "values": [
      {"measurement": "constant migration rate", "setting": "[1]", "value": "about 2 mg/cm^2 /24 h"},
      {"measurement": "sustained daily dosage provided by transdermal delivery", "setting": "[1]", "value": 30, "unit": "mg"},
      {"measurement": "most frequent side effects", "setting": "[2]", "value": "headaches, dizziness, gastrointestinal pain and nausea"},
      {"measurement": "rate of deterioration / acute improvement of patient's condition", "setting": "[3]; neuroprotective effect", "value": "although not producing an acute improvement in the patient's condition, does cause a reduction in the rate of deterioration"},
      {"measurement": "clinical parameters in dementia", "setting": "[3]; placebo controlled trials, mild to moderate dementia", "value": "positively influence clinical parameters in placebo controlled trials"},
      {"measurement": "plasma propentofylline concentration", "setting": "[4]; 2 hours following a single 300 mg oral dose, concluded from literature PK data", "value": "~10", "unit": "ng/mL"},
      {"measurement": "elimination half-life", "setting": "[4]; humans", "value": "15 to 45", "unit": "min"},
      {"measurement": "hepatic first pass metabolism", "setting": "[4]; humans", "value": "extensive hepatic first pass metabolism primarily to inactive metabolites"},
      {"measurement": "absolute bioavailability after oral administration", "setting": "[4]; oral, humans", "value": "5-10%"},
      {"measurement": "effect of food on bioavailability", "setting": "[4]; oral, humans", "value": "Drug interactions with food further reduce bioavailability"},
      {"measurement": "nucleoside transport inhibition, neuroprotective effects", "setting": "[5]", "value": "nucleoside transport inhibitor with neuroprotective effects in cerebral ischemia"}
    ]}
  ]
}
